Results on 13 molecules are retold here after patent publication EP0826686A2, “Tricyclic compounds, their production and use” (TAKEDA CHEMICAL INDUSTRIES, LTD., priority 1996, dated 1998).

Test [1] has as its system Human skin fibroblasts (Hs68). Briefly: PDGF-induced proliferation in Hs68 cells (3H-thymidine uptake). Format: cell-based. The settings on record: PDGF-BB 5 ng/ml, 24 hours; for inhibition at 1 µM: Concentration 1x10^-6 M; for inhibition at 3 µM: Concentration 3x10^-6 M; for inhibition at 0.3 µM: Concentration 3x10^-7 M. The procedure:
Experiments of PDGF-induced proliferation in Hs68 cells Method: Human skin fibroblasts (Hs68, Institute for Fermentation, Osaka) were seeded in 48-well plates precoated with collagen type I (Falcon) (25000 cells/well), and cultured for one day. Then, the cells were cultured in Dulbecco's modified Eagle's medium (high glucose) containing 0.1% bovine serum albumin for 48 hours. Fifteen (15) minutes after the addition of the drug, the cells were stimulated with 5 ng/ml of PDGF-BB (Becton Dickinson Labware) containing ^3H-thymidine (final concentration 0.4 mCi/ml) (Amersham). After 24 hours, the reaction was stopped with 7.5% trichloroacetic acid at 4°C and the plate was allowed to stand at 4°C for 30 minutes. The cells were washed with Ca^2+- and Mg^2+-free phosphate-buffered saline (PBS), after then 0.1% sodium dodecyl sulfate (SDS)/0.4N NaOH was added and the plate was allowed to stand at 37°C for 1 hour to lyze the cells. The whole content of each well was taken in a vial and neutralized with 1N HCl, and then toluene scintillator (Wako Pure Chemical Ind.) was added to each vial. After stirring, the amount of ^3H-thymidine incorporated in the cells was determined with a liquid scintillation counter. The cellular uptake of ^3H-thymidine was used as an indicator of cell proliferation. The effect of the drug on the PDGF-BB (5 ng/ml) uptake of ^3H-thymidine was expressed as % inhibition. […]

The subject of test [2] is Glomerular mesangial cells. Briefly: Inhibition of the proliferation of mesangial cells (PDGF-BB stimulated, 3H-thymidine uptake). Format: cell-based, Sprague-Dawley rats. The following applies: Rattus norvegicus, Glomerular mesangial cell, 24 h, PDGF-BB 5 ng/ml, read-out: Proliferation inhibiting activity (% Inhibition); for inhibition at 3 µM: Dose 3 x 10^-6 M; for inhibition at 1 µM: Dose 10^-6 M. The procedure:
Glomerular mesangial cells isolated from 4-week-old male Sprague-Dawley rats (Japan Clea) were cultured in a 24-well plate (Falcon) up to the subconfluence. The cells were subsequently cultured in Dulbecco's modified Eagle MEM containing 0.2% bovine serum albumin for 24 - 48 hours before addition of a drug substance. Fifteen minutes after the drug substance was added to the culture, the cells were allowed to react with 5 ng/ml of PDGF-BB (Becton Dickinson Labwere) for stimulation, simultaneously adding ^3H-Thymidine (final concentration 0.2 µ Ci/ml) (Amasham), for 24 hours. The reaction was blocked by adding 7.5 % TCA of 4°C. The mixture was allowed to stand at 4°C for 30 minutes. The cells were washed with phosphate buffered saline containing no Ca^2+ and Mg^2+. A 0.4N NaOH/0.1% sodium dodecyl sulfate (SDS) solution was added to the washed cells and the mixture was allowed to stand at 37°C for an hour to solubilize the cells. The whole qauntity was placed in a vial and neutralized with 1N HCl. Scintillator A (Wako Pure Chemicals) was added to this with stirring. The quantity of ^3H-Thymidine incorporated in the cells was measured by the liquid scintillation counter. The increase in the quantity of the incorporated ^3H-Thymidine was designated as the parameter of the cell proliferation. The inhibitory effect of a drug substance on the intake with PDGF-BB (5 ng/ml) was expressed as % inhibition (Table 1).

The next test deals with SHC rats. Briefly: Urinary protein excretion in SHC rats. The settings on record: 1 mg/kg/day oral once daily. Format: in vivo, Spontaneously hypercholesterolemic rats. An excerpt: Experiments of urinary protein excretion in SHC rats Method: Spontaneously hypercholesterolemic rats (male, 7 weeks old) were given a drug suspended in 0.5% methylcellulose (100 cP) by oral administration once daily for 6 weeks. A control group was given 0.5% methylcellulose (100 cP) by the same route once daily. As a normal control group, Sprague-Dawley rats (SD rats) (male, 7 weeks old, CLEA Japan, Inc.) were given 0.5% methylcellulose (100 cP) orally once daily. Before the start of medication and at 2-weeks intervals after the first administration of drugs, urine was collected for twenty four hours and the total protein and albumin excreted in the urine were determined. The assay of total protein and albumin was carried out using the A/GB Test Wako (Wako Pure Chemical Ind.).

[3] abbreviates: duration of administration 0 weeks (before start of medication).
Setting [4] is: duration of administration 2 weeks.
Where [5] appears, read: duration of administration 4 weeks.
[6] abbreviates: duration of administration 6 weeks.

Each structure is given as a SMILES string. Counter-ions that a name gives are not always drawn.

`Cc1nc2cccc3n(CCC4CCN(C(=O)C(F)(F)C(F)(F)F)CC4)c(=O)c1n23` [Example 27, 1,2-Dihydro-3-methyl-1-[2-(1-pentafluoropropionylpiperidin-4-yl)ethan-1-yl]-1,4,7b-triazacyclopent[cd]inden-2-one]: the inhibition at 1 µM in test [1] is 62.7%.

Regarding `O=C1c2cnc3cccc(n23)CN1CC1CCN(S(=O)(=O)C(F)(F)F)CC1` [11(iii), 4,5-Dihydro-4-(1-trifluoromethanesulfonylpiperidin-4-ylmethyl)-3H-1,4,8b-triazaacenaphthylen-3-one hydrochloride], in test [1], the inhibition at 3 µM is 59.2%.

Take `CC(C)(C)OC(=O)N1CCC(CCn2c(=O)c3cnc4cccc2n43)CC1` [Example 2, 1,2-Dihydro-1-[2-(1-tert-butoxycarbonylpiperidin-4-yl)ethan-1-yl]-1,4,7b-triazacyclopent[cd]inden-2-one]: in test [2], the inhibition at 3 µM worked out at 40.1% and the inhibition at 1 µM is 11.1%. Moreover, the inhibition at 10 µM in test [2] (Dose 10^-5 M) was determined as 58.3%.

For `CC(C)(C)OC(=O)N1CCC(Cn2c(=O)c3cnc4cccc2n43)CC1` [Example 1, 1,2-Dihydro-1-(1-tert-butoxycarbonylpiperidin-4-ylmethyl)-1,4,7b-triazacyclopent[cd]inden-2-one], the inhibition at 3 µM in test [2] stood at 39.4%.

`Cc1ccc(S(=O)(=O)NC[C@H]2CC[C@H](Cn3c(=O)c4c(C)nc5cccc3n54)CC2)cc1` [Example 32, 1,2-Dihydro-3-methyl-1-[trans-4-(4-methylphenylsulfonylamino)methyl-1-cyclohexylmethyl]-1,4,7b-triazacyclopent[cd]inden-2-one]: the inhibition at 1 µM in test [1] was determined as 80.3%.

Consider `O=c1c2cnc3cccc(n1CCC1CCN(S(=O)(=O)C(F)(F)F)CC1)n32` [Example 9(ii), 1,2-dihydro-1-[2-(1-trifluoromethanesulfonylpiperidin-4-yl)ethan-1-yl]-1,4,7b-triazacyclopent[cd]inden-2-one], for which the inhibition at 0.3 µM in test [1] is 94.9%. Further, the Urinary albumin in the test on SHC rats (setting [3]) is 12.0 mg/day; with SHC rats (setting [4]), 10.9 mg/day; with SHC rats (setting [5]) it was 46.2 mg/day; with SHC rats (setting [6]), 129.9 mg/day. In addition, the Urinary total protein with SHC rats (setting [3]) was 39.2 mg/day; in the test with SHC rats (setting [4]), 50.4 mg/day; in the test with SHC rats (setting [5]), 91.3 mg/day; in the test on SHC rats (setting [6]), 199.4 mg/day.

`O=c1c2cnc3cccc(n1CC1CCN(S(=O)(=O)C(F)(F)F)CC1)n32` [8(ii), 1,2-Dihydro-1-(1-trifluoromethanesulfonylpiperidin-4-ylmethyl)-1,4,7b-triazacyclopent[cd]inden-2-one] showed an inhibition at 1 µM in test [1] of 74.9%.

Take `Cc1nc2cccc3n(C[C@H]4CC[C@H](CNC(=O)C(F)(F)F)CC4)c(=O)c1n23` [Example 29, 1,2-Dihydro-3-methyl-1-[trans-4-(trifluoroacetylamino)methyl-1-cyclohexylmethyl]-1,4,7b-triazacyclopent[cd]inden-2-one]: the inhibition at 3 µM in test [1] is 76.1%.

Molecule `Cc1nc2cccc3n(CCCC4CCN(S(=O)(=O)C(F)(F)F)CC4)c(=O)c1n23` [Example 23, 1,2-Dihydro-3-methyl-1-[3-(1-trifluoromethanesulfonylpiperidin-4-yl)propan-1-yl]-1,4,7b-triazacyclopent[cd]inden-2-one] gave an inhibition at 0.3 µM in test [1] of 44.6%.

The molecule `O=C1c2cnc3cccc(n23)CN1CCC1CCN(S(=O)(=O)C(F)(F)F)CC1` [12(ii), 4,5-Dihydro-4-[2-(1-trifluoromethanesulfonylpiperidin-4-yl)ethan-1-yl]-3H-1,4,8b-triazaacenaphthylen-3-one] showed an inhibition at 1 µM in test [1] of 96.6%.

Regarding `Cc1nc2cccc3n(CCC4CCN(S(=O)(=O)C(F)(F)F)CC4)c(=O)c1n23` [Compound 3, 1,2-dihydro-3-methyl-1-[2-(1-trifluoromethanesulfonylpiperidin-4-yl)ethan-1-yl]-1,4,7b-triazacyclopent[cd]inden-2-one hydrochloride], the inhibition at 0.3 µM in test [2] (Dose 3 x 10^-7 M) amounted to 39%. The inhibition at 1 µM in test [2] turned out to be 91.1%.

With `Cc1nc2cccc3nc(SCCC4CCN(S(=O)(=O)C(F)(F)F)CC4)c1n23` [25(ii), 3-Methyl-2-[2-(1-trifluoromethanesulfonylpiperidin-4-yl)ethan-1-yl]thio-1,4,7b-triazacyclopent[cd]indene], the inhibition at 0.3 µM in test [1] was found to be 83.4%.

`O=C1c2cccc3ncc(n23)CN1CCC1CCN(S(=O)(=O)C(F)(F)F)CC1` [Example 19, 4,5-Dihydro-4-[2-(1-trifluoromethanesulfonylpiperidin-4-yl)ethan-1-yl]-3H-1,4,8b-triazaacenaphthylen-5-one]: in test [1], the inhibition at 1 µM came out at 72.8%.
